Here are results for six compounds from US10793529B2, “Substituted pyridazines and 1,2,4-triazines as prostacyclin receptor modulators” (Arena Pharmaceuticals, Inc., priority 2008, dated 2020).

The structures appear in SMILES notation.

The test system of one assay is human PRP. Nature of the assay: Human platelet aggregation inhibition test. Format: cell-based. The note with it: ADP-induced aggregation (1×10^−5 M ADP) in human platelet-rich plasma. As to the method:
Blood collected from healthy human volunteers in aqueous trisodium citrate solution was centrifuged at 150 g for 15 min and the upper layer was recovered to obtain platelet-rich plasma (PRP). The residual blood was centrifuged at 3000 g for 10 min and the supernatant was collected as platelet-poor plasma (PPP). Platelet concentration in the PRP was determined using the Z series Beckman Coulter particle counter (Beckman, Fullerton, Calif.) and adjusted to 250,000 platelets/μL using PPP. 480 μL of PRP was pre-incubated at 37° C. and stirred at 1200 rpm with 10 μL aqueous test compound solution for 1 min prior to induction of aggregation by the addition of 10 μL of aqueous adenosine diphosphate (ADP) solution to adjust the final ADP concentration in the PRP to 1×10^−5 M. The maximal amplitude of aggregation response within 3 min was determined and measured in triplicate using the Chronolog model 490 aggregometer (Chrono-log Corp., Havertown, Pa.). Percent inhibition of aggregation was calculated from the maximum decrease in optical density of the control (addition of water in place of the test compound solution) sample and of the samples containing test compound. The test compound was added to adjust the final concentration to the range 10^−9 to 10^−4 M, and IC50 values were determined by inhibition percentage of aggregation at each concentration.

Assay [1] deals with human prostacyclin (PGI2) receptor (Homo sapiens (Human), UniProt P43119). Nature of the assay: HTRF assay for direct cAMP measurement. The note with it: recombinant CHO-K1 cells stably transfected with human prostacyclin receptor; cAMP increase. Type of assay: cell-based. The text has this:
Compounds were screened for agonists of the human prostacyclin (PGI2) receptor using the HTRF® assay for direct cAMP measurement (Gabriel et al., ASSAY and Drug Development Technologies, 1:291-303, 2003) and recombinant CHO-K1 cells stably transfected with human prostacyclin receptor. CHO-K1 cells were obtained from ATCC® (Manassas, Va.; Catalog # CCL-61). An agonist of the prostacyclin receptor was detected in HTRF® assay for direct cAMP measurement as a compound which increased cAMP concentration. HTRF® assay also was used to determine EC50 values for prostacyclin receptor agonists.
The HTRF® assay kit was purchased from Cisbio-US, Inc. (Bedford, Mass.; Catalog #62AM4PEC). The HTRF® assay supported by the kit is a competitive immunoassay between endogenous cAMP produced by the CHO-K1 cells and tracer cAMP labeled with the dye d2. The tracer binding is visualized by a monoclonal anti-cAMP antibody labeled with Cryptate. The specific signal (i.e., fluorescence resonance energy transfer, FRET) is inversely proportional to the concentration of unlabeled cAMP in the standard or sample.
The fluorescence ratio (665 nm/620 nm) of the standards (0.17 to 712 nM cAMP) included in the assay was calculated and used to generate a cAMP standard curve according to the kit manufacturer's instructions. The fluorescence ratio of the samples (test compound or compound buffer) was calculated and used to deduce respective cAMP concentrations by reference to the cAMP standard curve.
The HTRF® assay was carried out using a two-step protocol essentially according to the kit manufacturer's instructions, in 20 μL total volume per well in 384-well plate format (ProxiPlates; PerkinElmer, Fremont, Calif.; catalog #6008280). To each of the experimental wells was transferred 3000 recombinant CHO-K1 cells in 5 μL assay buffer (phosphate buffered saline containing calcium chloride and magnesium chloride (Invitrogen, Carlsbad, Calif.; catalog #14040) supplemented with IBMX ([…]) and rolipram ([…]) (phosphodiesterase inhibitors; Sigma-Aldrich, St. Louis, Mo.; catalog #15879 and catalog # R6520, respectively) and 0.1% bovine serum albumin (BSA) fraction V (Sigma-Aldrich; catalog # A3059)), followed by test compound in 5 μL assay buffer or 5 μL assay buffer. The plate was then incubated at room temperature for 1 h. To each well was then added 5 μL cAMP-d2 conjugate in lysis buffer and 5 μL Cryptate conjugate in lysis buffer according to the kit manufacturer's instructions. The plate was then further incubated at room temperature for 1 h, after which the assay plate was read.
The HTRF® readout was accomplished using a PHERAstar (BMG LABTECH Inc., Durham, N.C.) or EnVision™ (PerkinElmer, Fremont Calif.) microplate reader.
A general note: TR-FRET usually uses a lanthanide donor and a delayed reading to cut background.

Assay [2] has as its system MCT-induced pulmonary arterial hypertension in rat. Nature of the assay: Rat monocrotaline (MCT) model of pulmonary arterial hypertension. Type of assay: in vivo. The settings on record: 30 mg/kg oral gavage twice a day for 21 days, male Wistar rats, 60 mg/kg MCT s.c.; FIG. 1. As to the method:
Male Wistar rats (100-150 g at start of study) (Charles River Laboratories, Wilmington, Mass.) were housed two per cage and maintained in a humidity-(40-60%) and temperature-(68-72° F.) controlled facility on a 12 hr: 12 hr light/dark cycle (lights on at 6:30 am) with free access to food (Harlan Teklad, Orange Calif., Rodent Diet 8604) and water. Rats were allowed one week of habituation to the animal facility before testing.
The rat monocrotaline (MCT) model is a standard and well-accepted model of pulmonary arterial hypertension. MCT induces acute pulmonary endothelial damage associated with pulmonary vascular inflammation. […]
Rats were randomly given a single subcutaneous injection of either 60 mg/kg MCT (Sigma, St. Louis, Mo.) or 0.9% saline (sham) and assigned to receive oral administration of 20% hydroxypropyl beta-cyclodextrin (vehicle) or test compound (30 mg/kg; FIG. 1). […] Heart chamber weights were measured on Day 22. […] The ratio of right ventricular (RV) weight to left ventricle plus septum (LV+S) weight (this ratio is indicated as “RV/(LV+S)” in FIG. 1) was calculated as an index of the hypertrophic response to the induced pulmonary arterial hypertension and, as such, as an index of a test compound's therapeutic efficacy for pulmonary arterial hypertension.

Chain of human prostacyclin (PGI2) receptor (P43119 whole entry): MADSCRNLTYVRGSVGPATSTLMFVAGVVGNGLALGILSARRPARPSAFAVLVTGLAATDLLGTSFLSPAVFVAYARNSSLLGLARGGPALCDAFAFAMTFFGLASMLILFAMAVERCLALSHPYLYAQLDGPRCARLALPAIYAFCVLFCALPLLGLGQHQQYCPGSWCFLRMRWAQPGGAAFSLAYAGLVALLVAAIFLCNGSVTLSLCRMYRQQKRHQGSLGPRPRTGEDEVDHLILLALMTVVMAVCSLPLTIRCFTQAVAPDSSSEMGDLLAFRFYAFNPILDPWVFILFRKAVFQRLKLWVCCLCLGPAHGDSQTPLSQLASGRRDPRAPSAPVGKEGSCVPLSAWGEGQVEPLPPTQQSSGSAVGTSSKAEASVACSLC

A word on the IC50: it is the concentration needed to halve the response being measured. Low values mean inhibition by little substance, high ones a need for much substance. For the compound `O=C(O)COC[C@H]1CC[C@@H](Cn2nc(-c3ccccc3)c(-c3cccc(F)c3F)cc2=O)CC1` [Compound 8, 2-(((1s,4s)-4-((4-(2,3-difluorophenyl)-6-oxo-3-phenylpyridazin-1(6H)-yl)methyl)cyclohexyl)methoxy)acetic acid], in the assay on human PRP, the IC50 is 0.067 µM.

As usually defined, the EC50 is the concentration that produces a half-maximal response. For the compound `O=C(O)COC[C@H]1CC[C@@H](Cn2nc(-c3ccccc3)c(-c3cccc(Cl)c3F)cc2=O)CC1` [Compound 31, 2-(((1s,4s,)-4-((4-(3-chloro-2-fluorophenyl)-6-oxo-3-phenylpyridazin-1(6H)-yl)methyl)cyclohexyl)methoxy)acetic acid], in the assay with human PRP, half-maximal inhibition (IC50) required 0.021 µM. Besides, the half-maximal effective concentration (EC50) in assay [1] worked out at 31 nM.

Consider `Cc1ccc(-c2nc(=O)n(C[C@H]3CC[C@@H](COCC(=O)O)CC3)nc2-c2ccc(C)cc2)cc1` [Compound 43, 2-(((1s,4s)-4-((3-oxo-5,6-di-p-tolyl-1,2,4-triazin-2(3H)-yl)methyl)cyclohexyl)methoxy)acetic acid], for which, in the assay with human PRP, 0.13 µM corresponded to half-maximal inhibition (IC50). In assay [1], the EC50 is 36 nM.

For `O=C(O)COC[C@H]1CC[C@@H](Cn2nc(-c3ccccc3)c(-c3cccc(Cl)c3)nc2=O)CC1` [Compound 67, 2-(((1s,4s)-4-((5-(3-chlorophenyl)-3-oxo-6-phenyl-1,2,4-triazin-2(3H)-yl)methyl)cyclohexyl)methoxy)acetic acid], the EC50 in assay [1] was found to be 73 nM.

On to `Cc1ccc(-c2nn(C[C@H]3CC[C@@H](COCC(=O)O)CC3)c(=O)nc2-c2ccccc2)cc1` [Compound 68, 2-(((1s,4s)-4-((3-oxo-5-phenyl-6-p-tolyl-1,2,4-triazin-2(3H)-yl)methyl)cyclohexyl)methoxy)acetic acid], for which, in assay [2], the “right ventricle hypertrophic response, RV/(LV+S)” value is “inhibited the hypertrophic response”.

In the assay with human PRP, `COc1ccc(-c2nn(C[C@H]3CC[C@@H](COCC(=O)O)CC3)c(=O)nc2-c2ccccc2)cc1` [Compound 69, 2-(((1s,4s)-4-((6-(4-methoxyphenyl)-3-oxo-5-phenyl-1,2,4-triazin-2(3H)-yl)methyl)cyclohexyl)methoxy)acetic acid] showed an IC50 of 0.022 µM. In addition, in assay [1], the EC50 turned out to be 8 nM.
